Experimental data as given in article PMC4767141, “Discovery of Potent, Orally Bioavailable, Small-Molecule Inhibitors of WNT Signaling from a Cell-Based Pathway Screen” (Journal of Medicinal Chemistry, 2015).

Legend:
A3 (h) = target: T1, A3 (h) (Homo sapiens, UniProt P0DMS8); test: CEREP binding panel; conditions: agonist radioligand, read-out: % Inhibition of Control Specific Binding
T1 construct: purchased Millipore KinaseProfiler (kinases); Cerep (receptors and ion channels)

α1 (non-selective) = test: CEREP binding panel; conditions: 10 μM, antagonist radioligand
AT1 (h) = target: T2, AT1 (h) (Homo sapiens, UniProt P30556); test: CEREP binding panel; conditions: antagonist radioligand, read-out: % Inhibition of Control Specific Binding
T2 construct: purchased Millipore KinaseProfiler (kinases); Cerep (receptors and ion channels)

H2 (h) = target: T3, H2 (h) (Homo sapiens, UniProt P25021); test: CEREP binding panel; conditions: antagonist radioligand, read-out: % Inhibition of Control Specific Binding
T3 construct: purchased Millipore KinaseProfiler (kinases); Cerep (receptors and ion channels)

MT1 (ML1A) (h) = target: T4, MT1 (ML1A) (h) (Homo sapiens, UniProt P48039); test: CEREP binding panel; conditions: agonist radioligand, read-out: % Inhibition of Control Specific Binding
T4 construct: purchased Millipore KinaseProfiler (kinases); Cerep (receptors and ion channels)

Y2 (h) = target: T5, Y2 (h) (Homo sapiens, UniProt P49146); test: CEREP binding panel; conditions: agonist radioligand, read-out: % Inhibition of Control Specific Binding
T5 construct: purchased Millipore KinaseProfiler (kinases); Cerep (receptors and ion channels)

BTK = target: T6, BTK (Homo sapiens, UniProt Q06187); test: Millipore kinase panel; type: biochemical; conditions: read-out: % Control
T6 construct: purchased Millipore KinaseProfiler (kinases); Cerep (receptors and ion channels)

CDK9/CYCLINT1 = target: T7, CDK9/CYCLINT1 (Homo sapiens, UniProt P50750); test: Millipore kinase panel; type: biochemical; conditions: read-out: % Control
T7 construct: purchased Millipore KinaseProfiler (kinases); Cerep (receptors and ion channels)

CHK1 = target: T8, CHK1 (Homo sapiens, UniProt O14757); test: Millipore kinase panel; type: biochemical; conditions: read-out: % Control
T8 construct: purchased Millipore KinaseProfiler (kinases); Cerep (receptors and ion channels)

DMPK = target: T9, DMPK (Homo sapiens, UniProt Q09013); test: Millipore kinase panel; type: biochemical; conditions: read-out: % Control
T9 construct: purchased Millipore KinaseProfiler (kinases); Cerep (receptors and ion channels)

EPHA3 = target: T10, EPHA3 (Homo sapiens, UniProt P29320); test: Millipore kinase panel; type: biochemical; conditions: read-out: % Control
T10 construct: purchased Millipore KinaseProfiler (kinases); Cerep (receptors and ion channels)

EPHB3 = target: T11, EPHB3 (Homo sapiens, UniProt P54753); test: Millipore kinase panel; type: biochemical; conditions: read-out: % Control
T11 construct: purchased Millipore KinaseProfiler (kinases); Cerep (receptors and ion channels)

FER = target: T12, FER (Homo sapiens, UniProt P16591); test: Millipore kinase panel; type: biochemical; conditions: read-out: % Control
T12 construct: purchased Millipore KinaseProfiler (kinases); Cerep (receptors and ion channels)

FGFR1 = target: T13, FGFR1 (Homo sapiens, UniProt P11362); test: Millipore kinase panel; type: biochemical; conditions: read-out: % Control
T13 construct: purchased Millipore KinaseProfiler (kinases); Cerep (receptors and ion channels)

FYN = target: T14, FYN (Homo sapiens, UniProt P06241); test: Millipore kinase panel; type: biochemical; conditions: read-out: % Control
T14 construct: purchased Millipore KinaseProfiler (kinases); Cerep (receptors and ion channels)

HIPK1 = target: T15, HIPK1 (Homo sapiens, UniProt Q86Z02); test: Millipore kinase panel; type: biochemical; conditions: read-out: % Control
T15 construct: purchased Millipore KinaseProfiler (kinases); Cerep (receptors and ion channels)

HIPK2 = target: T16, HIPK2 (Homo sapiens, UniProt Q9H2X6); test: Millipore kinase panel; type: biochemical; conditions: read-out: % Control
T16 construct: purchased Millipore KinaseProfiler (kinases); Cerep (receptors and ion channels)

IKKBETA = target: T17, IKKBETA (Homo sapiens, UniProt O14920); test: Millipore kinase panel; type: biochemical; conditions: read-out: % Control
T17 construct: purchased Millipore KinaseProfiler (kinases); Cerep (receptors and ion channels)

KDR = target: T18, KDR (Homo sapiens, UniProt P35968); test: Millipore kinase panel; type: biochemical; conditions: read-out: % Control
T18 construct: purchased Millipore KinaseProfiler (kinases); Cerep (receptors and ion channels)

MAPKAP-K3 = target: T19, MAPKAP-K3 (Homo sapiens, UniProt Q16644); test: Millipore kinase panel; type: biochemical; conditions: read-out: % Control
T19 construct: purchased Millipore KinaseProfiler (kinases); Cerep (receptors and ion channels)

MARK1 = target: T20, MARK1 (Homo sapiens, UniProt Q9P0L2); test: Millipore kinase panel; type: biochemical; conditions: read-out: % Control
T20 construct: purchased Millipore KinaseProfiler (kinases); Cerep (receptors and ion channels)

MLCK = target: T21, MLCK (Homo sapiens, UniProt Q9H1R3); test: Millipore kinase panel; type: biochemical; conditions: read-out: % Control
T21 construct: purchased Millipore KinaseProfiler (kinases); Cerep (receptors and ion channels)

MRCKBETA = target: T22, MRCKBETA (Homo sapiens, UniProt Q9Y5S2); test: Millipore kinase panel; type: biochemical; conditions: read-out: % Control
T22 construct: purchased Millipore KinaseProfiler (kinases); Cerep (receptors and ion channels)

NEK7 = target: T23, NEK7 (Homo sapiens, UniProt Q8TDX7); test: Millipore kinase panel; type: biochemical; conditions: read-out: % Control
T23 construct: purchased Millipore KinaseProfiler (kinases); Cerep (receptors and ion channels)

PAK4 = target: T24, PAK4 (Homo sapiens, UniProt O96013); test: Millipore kinase panel; type: biochemical; conditions: read-out: % Control
T24 construct: purchased Millipore KinaseProfiler (kinases); Cerep (receptors and ion channels)

PASK = target: T25, PASK (Homo sapiens, UniProt Q96RG2); test: Millipore kinase panel; type: biochemical; conditions: read-out: % Control
T25 construct: purchased Millipore KinaseProfiler (kinases); Cerep (receptors and ion channels)

PDK1 = target: T26, PDK1 (Homo sapiens, UniProt O15530); test: Millipore kinase panel; type: biochemical; conditions: read-out: % Control
T26 construct: purchased Millipore KinaseProfiler (kinases); Cerep (receptors and ion channels)

PKG1ALPHA = target: T27, PKG1ALPHA (Homo sapiens, UniProt Q13976); test: Millipore kinase panel; type: biochemical; conditions: read-out: % Control
T27 construct: purchased Millipore KinaseProfiler (kinases); Cerep (receptors and ion channels)

RET = target: T28, RET (Homo sapiens, UniProt P07949); test: Millipore kinase panel; type: biochemical; conditions: read-out: % Control
T28 construct: purchased Millipore KinaseProfiler (kinases); Cerep (receptors and ion channels)

RSE = target: T29, RSE (Homo sapiens, UniProt Q06418); test: Millipore kinase panel; type: biochemical; conditions: read-out: % Control
T29 construct: purchased Millipore KinaseProfiler (kinases); Cerep (receptors and ion channels)

RSK1 = target: T30, RSK1 (Homo sapiens, UniProt Q15418); test: Millipore kinase panel; type: biochemical; conditions: read-out: % Control
T30 construct: purchased Millipore KinaseProfiler (kinases); Cerep (receptors and ion channels)

RSK2 = target: T31, RSK2 (Homo sapiens, UniProt P51812); test: Millipore kinase panel; type: biochemical; conditions: read-out: % Control
T31 construct: purchased Millipore KinaseProfiler (kinases); Cerep (receptors and ion channels)

SAPK2A = target: T32, SAPK2A (Homo sapiens, UniProt Q16539); test: Millipore kinase panel; type: biochemical; conditions: read-out: % Control
T32 construct: purchased Millipore KinaseProfiler (kinases); Cerep (receptors and ion channels)

SAPK2B = target: T33, SAPK2B (Homo sapiens, UniProt Q15759); test: Millipore kinase panel; type: biochemical; conditions: read-out: % Control
T33 construct: purchased Millipore KinaseProfiler (kinases); Cerep (receptors and ion channels)

SGK3 = target: T34, SGK3 (Homo sapiens, UniProt Q96BR1); test: Millipore kinase panel; type: biochemical; conditions: read-out: % Control
T34 construct: purchased Millipore KinaseProfiler (kinases); Cerep (receptors and ion channels)

SRC = target: T35, SRC (Homo sapiens, UniProt P12931); test: Millipore kinase panel; type: biochemical; conditions: read-out: % Control
T35 construct: purchased Millipore KinaseProfiler (kinases); Cerep (receptors and ion channels)

TAK1 = target: T36, TAK1 (Homo sapiens, UniProt O43318); test: Millipore kinase panel; type: biochemical; conditions: read-out: % Control
T36 construct: purchased Millipore KinaseProfiler (kinases); Cerep (receptors and ion channels)

WNK2 = target: T37, WNK2 (Homo sapiens, UniProt Q9Y3S1); test: Millipore kinase panel; type: biochemical; conditions: read-out: % Control
T37 construct: purchased Millipore KinaseProfiler (kinases); Cerep (receptors and ion channels)

WNK3 = target: T38, WNK3 (Homo sapiens, UniProt Q9BYP7); test: Millipore kinase panel; type: biochemical; conditions: read-out: % Control
T38 construct: purchased Millipore KinaseProfiler (kinases); Cerep (receptors and ion channels)

CK1GAMMA1 = target: T39, CK1GAMMA1 (Homo sapiens, UniProt Q9HCP0); test: Millipore kinase panel; type: biochemical; conditions: read-out: % Control
T39 construct: purchased Millipore KinaseProfiler (kinases); Cerep (receptors and ion channels)

CAMKIIBETA = target: T40, CAMKIIBETA (Homo sapiens, UniProt Q13554); test: Millipore kinase panel; type: biochemical; conditions: read-out: % Control
T40 construct: purchased Millipore KinaseProfiler (kinases); Cerep (receptors and ion channels)

TLK2 = target: T41, TLK2 (Homo sapiens, UniProt Q86UE8); test: Millipore kinase panel; type: biochemical; conditions: read-out: % Control
T41 construct: purchased Millipore KinaseProfiler (kinases); Cerep (receptors and ion channels)

CLK2 = target: T42, CLK2 (Homo sapiens, UniProt P49760); test: Millipore kinase panel; type: biochemical; conditions: read-out: % Control
T42 construct: purchased Millipore KinaseProfiler (kinases); Cerep (receptors and ion channels)

ULK2 = target: T43, ULK2 (Homo sapiens, UniProt Q8IYT8); test: Millipore kinase panel; type: biochemical; conditions: read-out: % Control
T43 construct: purchased Millipore KinaseProfiler (kinases); Cerep (receptors and ion channels)

T5 sequence (P49146 whole entry): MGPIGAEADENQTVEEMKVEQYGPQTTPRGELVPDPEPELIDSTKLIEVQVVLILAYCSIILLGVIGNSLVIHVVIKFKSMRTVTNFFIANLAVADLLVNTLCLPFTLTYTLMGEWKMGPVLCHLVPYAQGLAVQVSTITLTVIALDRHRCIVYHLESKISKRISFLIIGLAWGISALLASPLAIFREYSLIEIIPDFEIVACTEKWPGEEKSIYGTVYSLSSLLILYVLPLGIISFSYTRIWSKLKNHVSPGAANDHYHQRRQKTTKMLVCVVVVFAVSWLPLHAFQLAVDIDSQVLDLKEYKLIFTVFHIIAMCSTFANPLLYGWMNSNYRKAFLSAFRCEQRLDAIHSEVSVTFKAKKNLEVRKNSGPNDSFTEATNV
T42 sequence (P49760 whole entry): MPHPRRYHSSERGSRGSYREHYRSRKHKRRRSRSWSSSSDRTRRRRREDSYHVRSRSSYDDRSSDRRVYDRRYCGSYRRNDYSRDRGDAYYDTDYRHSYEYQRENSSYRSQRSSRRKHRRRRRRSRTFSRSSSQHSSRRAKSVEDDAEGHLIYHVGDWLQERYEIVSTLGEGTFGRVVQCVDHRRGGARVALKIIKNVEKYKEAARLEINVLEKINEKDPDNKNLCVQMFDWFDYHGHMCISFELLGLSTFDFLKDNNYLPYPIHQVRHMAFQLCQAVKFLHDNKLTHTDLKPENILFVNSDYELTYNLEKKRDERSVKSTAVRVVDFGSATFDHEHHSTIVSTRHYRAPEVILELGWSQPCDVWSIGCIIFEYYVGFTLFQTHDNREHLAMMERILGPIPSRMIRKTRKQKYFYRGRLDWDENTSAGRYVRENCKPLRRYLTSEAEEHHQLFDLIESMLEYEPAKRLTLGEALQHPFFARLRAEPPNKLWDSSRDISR
T28 sequence (P07949 29-1114): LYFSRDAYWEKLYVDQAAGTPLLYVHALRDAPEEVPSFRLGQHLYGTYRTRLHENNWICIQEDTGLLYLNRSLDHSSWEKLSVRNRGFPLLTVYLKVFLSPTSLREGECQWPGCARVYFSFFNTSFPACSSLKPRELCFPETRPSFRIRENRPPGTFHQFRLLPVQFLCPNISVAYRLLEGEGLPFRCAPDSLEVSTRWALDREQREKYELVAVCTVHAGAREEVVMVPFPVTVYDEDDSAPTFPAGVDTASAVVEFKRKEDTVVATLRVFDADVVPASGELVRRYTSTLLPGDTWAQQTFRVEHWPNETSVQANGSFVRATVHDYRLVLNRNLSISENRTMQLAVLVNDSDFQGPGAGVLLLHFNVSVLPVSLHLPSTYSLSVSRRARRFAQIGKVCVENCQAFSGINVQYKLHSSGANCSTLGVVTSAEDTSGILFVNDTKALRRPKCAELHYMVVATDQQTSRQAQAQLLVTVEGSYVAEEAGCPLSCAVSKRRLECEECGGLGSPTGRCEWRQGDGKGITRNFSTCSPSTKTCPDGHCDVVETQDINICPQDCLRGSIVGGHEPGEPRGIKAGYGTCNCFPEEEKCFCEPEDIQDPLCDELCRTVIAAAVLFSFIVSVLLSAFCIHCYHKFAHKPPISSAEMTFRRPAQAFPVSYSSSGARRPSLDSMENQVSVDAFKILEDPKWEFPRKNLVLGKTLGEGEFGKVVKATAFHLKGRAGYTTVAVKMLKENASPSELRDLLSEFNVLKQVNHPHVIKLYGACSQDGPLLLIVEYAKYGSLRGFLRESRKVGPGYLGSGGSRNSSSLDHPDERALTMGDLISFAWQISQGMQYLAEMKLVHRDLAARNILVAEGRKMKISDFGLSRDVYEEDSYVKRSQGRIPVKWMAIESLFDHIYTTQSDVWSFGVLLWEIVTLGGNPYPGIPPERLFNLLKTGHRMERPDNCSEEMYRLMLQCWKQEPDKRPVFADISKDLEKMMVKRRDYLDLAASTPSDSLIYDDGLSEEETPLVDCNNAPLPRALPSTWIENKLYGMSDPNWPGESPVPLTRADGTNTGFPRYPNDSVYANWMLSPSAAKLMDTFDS
T23 sequence (Q8TDX7 whole entry): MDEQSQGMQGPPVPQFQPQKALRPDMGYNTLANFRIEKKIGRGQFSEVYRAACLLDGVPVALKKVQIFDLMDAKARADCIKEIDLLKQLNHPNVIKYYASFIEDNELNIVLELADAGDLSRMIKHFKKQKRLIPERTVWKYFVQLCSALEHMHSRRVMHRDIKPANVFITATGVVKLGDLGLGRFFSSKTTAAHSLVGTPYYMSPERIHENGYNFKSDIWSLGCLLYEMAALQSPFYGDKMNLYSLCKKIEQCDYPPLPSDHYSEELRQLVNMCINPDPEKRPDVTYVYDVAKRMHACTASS
T1 sequence (P0DMS8 whole entry): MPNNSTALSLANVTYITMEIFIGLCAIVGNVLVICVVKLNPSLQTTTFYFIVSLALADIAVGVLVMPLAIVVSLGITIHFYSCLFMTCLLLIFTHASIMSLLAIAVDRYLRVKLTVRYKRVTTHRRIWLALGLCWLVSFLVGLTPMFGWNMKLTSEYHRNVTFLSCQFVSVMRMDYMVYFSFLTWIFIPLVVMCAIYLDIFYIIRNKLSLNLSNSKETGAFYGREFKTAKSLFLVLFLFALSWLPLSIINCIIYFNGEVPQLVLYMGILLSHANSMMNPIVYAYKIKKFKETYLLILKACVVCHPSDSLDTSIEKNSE
T27 sequence (Q13976 whole entry): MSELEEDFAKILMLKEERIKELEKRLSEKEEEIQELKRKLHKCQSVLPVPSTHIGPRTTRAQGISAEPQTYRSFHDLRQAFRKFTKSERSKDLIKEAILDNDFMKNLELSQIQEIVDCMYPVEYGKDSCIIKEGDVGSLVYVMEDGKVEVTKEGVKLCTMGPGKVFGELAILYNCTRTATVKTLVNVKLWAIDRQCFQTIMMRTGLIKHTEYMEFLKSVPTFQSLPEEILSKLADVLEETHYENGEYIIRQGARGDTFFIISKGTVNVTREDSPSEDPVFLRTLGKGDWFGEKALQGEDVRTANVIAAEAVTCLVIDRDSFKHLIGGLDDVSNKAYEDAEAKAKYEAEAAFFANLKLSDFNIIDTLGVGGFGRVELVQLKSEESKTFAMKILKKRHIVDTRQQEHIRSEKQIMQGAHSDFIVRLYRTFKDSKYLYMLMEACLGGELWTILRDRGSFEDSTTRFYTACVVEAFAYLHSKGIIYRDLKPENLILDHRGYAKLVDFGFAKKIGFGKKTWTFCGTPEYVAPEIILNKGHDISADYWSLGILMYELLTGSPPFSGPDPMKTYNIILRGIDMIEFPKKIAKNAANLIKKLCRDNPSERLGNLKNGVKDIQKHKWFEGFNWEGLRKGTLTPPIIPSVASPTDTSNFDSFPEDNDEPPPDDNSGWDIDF
T39 sequence (Q9HCP0 whole entry): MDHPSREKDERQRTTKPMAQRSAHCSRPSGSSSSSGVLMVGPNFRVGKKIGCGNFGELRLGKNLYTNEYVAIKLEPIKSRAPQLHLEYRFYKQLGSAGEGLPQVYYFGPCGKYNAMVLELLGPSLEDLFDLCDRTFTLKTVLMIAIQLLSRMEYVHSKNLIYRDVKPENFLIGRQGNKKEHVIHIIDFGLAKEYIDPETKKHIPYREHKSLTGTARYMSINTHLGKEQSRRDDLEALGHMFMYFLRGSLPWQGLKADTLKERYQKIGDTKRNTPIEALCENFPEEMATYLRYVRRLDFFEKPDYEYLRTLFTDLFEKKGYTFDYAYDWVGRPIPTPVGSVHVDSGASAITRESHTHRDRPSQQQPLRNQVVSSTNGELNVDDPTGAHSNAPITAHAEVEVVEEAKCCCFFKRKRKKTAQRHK
T32 sequence (Q16539 whole entry): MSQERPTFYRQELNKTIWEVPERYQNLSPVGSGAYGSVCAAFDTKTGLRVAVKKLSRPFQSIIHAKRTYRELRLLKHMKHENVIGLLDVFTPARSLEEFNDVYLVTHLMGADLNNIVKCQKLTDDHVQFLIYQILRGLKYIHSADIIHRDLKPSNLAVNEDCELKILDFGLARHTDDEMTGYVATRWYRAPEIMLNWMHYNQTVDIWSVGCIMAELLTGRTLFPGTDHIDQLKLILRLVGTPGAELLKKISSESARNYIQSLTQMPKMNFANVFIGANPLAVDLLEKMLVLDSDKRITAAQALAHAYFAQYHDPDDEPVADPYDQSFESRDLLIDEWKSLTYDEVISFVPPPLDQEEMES
T2 sequence (P30556 whole entry): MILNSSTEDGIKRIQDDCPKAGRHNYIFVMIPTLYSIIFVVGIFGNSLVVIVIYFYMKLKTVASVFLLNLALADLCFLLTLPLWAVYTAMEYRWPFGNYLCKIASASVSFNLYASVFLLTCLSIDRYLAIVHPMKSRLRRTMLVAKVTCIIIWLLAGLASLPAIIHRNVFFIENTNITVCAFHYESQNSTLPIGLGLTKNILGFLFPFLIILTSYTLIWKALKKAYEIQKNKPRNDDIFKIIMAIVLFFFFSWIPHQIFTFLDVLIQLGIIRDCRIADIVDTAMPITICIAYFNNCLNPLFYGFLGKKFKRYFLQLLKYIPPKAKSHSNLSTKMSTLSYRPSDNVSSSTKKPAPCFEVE
T33 sequence (Q15759 whole entry): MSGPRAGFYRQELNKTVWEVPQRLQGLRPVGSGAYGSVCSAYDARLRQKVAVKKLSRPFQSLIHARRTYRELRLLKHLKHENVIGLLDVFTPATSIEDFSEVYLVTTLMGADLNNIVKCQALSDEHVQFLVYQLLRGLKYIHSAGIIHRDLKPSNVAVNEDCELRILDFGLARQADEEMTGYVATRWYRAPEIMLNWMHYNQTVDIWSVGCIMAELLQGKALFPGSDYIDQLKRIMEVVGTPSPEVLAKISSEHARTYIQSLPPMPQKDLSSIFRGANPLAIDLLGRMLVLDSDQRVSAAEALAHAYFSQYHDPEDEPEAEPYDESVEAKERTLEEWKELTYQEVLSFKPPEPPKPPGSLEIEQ

O=C1NCCC12CCN(c1c(Cl)cncc1-c1ccc(N3CCOCC3)cc1)CC2 [Compound 44, 8-(3-Chloro-5-(4-morpholin-4-ylphenyl)pyridin-4-yl)-2,8-diazaspiro[4.5]decan-1-one] was tested, and the inhibition at 10 µM (A3 (h)) was -7%, the “% Inhibition of Control Specific Binding” value (α1 (non-selective)) was -4% and the inhibition at 10 µM (AT1 (h)) was 2%. It also gave an inhibition at 10 µM (H2 (h)) of -16%, an inhibition at 10 µM (MT1 (ML1A) (h)) of 17% and an inhibition at 10 µM (Y2 (h)) of -8%. For the same molecule, the remaining activity at 1 µM (BTK) was -2%, the remaining activity at 1 µM (CDK9/CYCLINT1) was -24% and the remaining activity at 1 µM (CHK1) was -7%. It also gave a remaining activity at 1 µM (DMPK) of -7%, a remaining activity at 1 µM (EPHA3) of 10% and a remaining activity at 1 µM (EPHB3) of 17%. The remaining activity at 1 µM (FER) was 11%, the remaining activity at 1 µM (FGFR1) was 13% and the remaining activity at 1 µM (FYN) was 10%. It also gave a remaining activity at 1 µM (HIPK1) of 7%, a remaining activity at 1 µM (HIPK2) of 2% and a remaining activity at 1 µM (IKKBETA) of 3%. The remaining activity at 1 µM (KDR) was 21%, the remaining activity at 1 µM (MAPKAP-K3) was -3% and the remaining activity at 1 µM (MARK1) was 4%. It also gave a remaining activity at 1 µM (MLCK) of 1%, a remaining activity at 1 µM (MRCKBETA) of 4% and a remaining activity at 1 µM (NEK7) of -7%. It also gave a remaining activity at 1 µM (PAK4) of -2%, a remaining activity at 1 µM (PASK) of 1% and a remaining activity at 1 µM (PDK1) of 3%. It also gave a remaining activity at 1 µM (PKG1ALPHA) of 8%, a remaining activity at 1 µM (RET) of 14% and a remaining activity at 1 µM (RSE) of 7%. The remaining activity at 1 µM (RSK1) was 2%, the remaining activity at 1 µM (RSK2) was 3% and the remaining activity at 1 µM (SAPK2A) was -1%. For the same molecule, the remaining activity at 1 µM (SAPK2B) was 4%, the remaining activity at 1 µM (SGK3) was 5% and the remaining activity at 1 µM (SRC) was 4%. It also gave a remaining activity at 1 µM (TAK1) of -3%, a remaining activity at 1 µM (WNK2) of -4% and a remaining activity at 1 µM (WNK3) of 0%. It also gave a remaining activity at 1 µM (CK1GAMMA1) of 2%, a remaining activity at 1 µM (CAMKIIBETA) of 0% and a remaining activity at 1 µM (TLK2) of -12%. It also gave a remaining activity at 1 µM (CLK2) of -10% and a remaining activity at 1 µM (ULK2) of 10%.
